This is an account of results in patent publication EP1057829A1, “Novel compounds and pharmaceutical compositions containing the same” (The Jordanian Pharmaceutical Manufacturing and Medical …, priority 1999, dated 2000).

Holding throughout (type): in vivo
One data set deals with male rats. The data set can be described thus: Penile erection of male rats after oral administration, observed for 2 h. As to conditions: for ED50: Rattus norvegicus, 2 h, erectile response, ED50 values significantly different with a 95% confidence interval, read-out: Calculated ED50; for responding rats # / responding rats %: 10 rats tested, penile erection monitored during 2 h. The method, then:
The purpose of this study was to compare the biological activity of compound 7a with that of sildenafil. In particular, the respective ED50-value (ED=effective dose), erection episodes and penile erection indices of said compounds in the treatment of male rats were determined. The penile erection index is an established means of determining the erection promoting properties of a substance (see e.g. Ang, H.H., Sim, M.K., Pharm. Sci., 3, 117-119 (1997) and references cited therein).
In these experiments, the compounds 7a and sildenafil were administered to male rats orally. The doses used for both drugs were 0.0781, 0.1562, 0.3125 and 0.625 mg/kg body weight. Sildenafil was dissolved in distilled water, whereas 7a was dissolved in 1% HCl solution (aq). Control animals were administered with the vehicles only, i.e. distilled water or the 1% HCl solution. During the experiments, the rats were placed in glass cages for observation and had access to food and water. During 2 h after administration of the investigated compounds, the penile erection of the rats was monitored.

The next data set concerns rats. Briefly: Preliminary toxicity studies in rats. The method, then:
(§1) Moreover, according to preliminary toxicity studies in rats, the compound 7a is tolerated up to a dose of about […] body weight without any detrimental effects. […] Thus, high doses of 7a provide a particularly efficient means for treatment of erectile dysfunction.

Data set [1] is described as follows: Preliminary toxicity studies in rats. As to conditions: rat, in vivo, read-out: tolerated dose without any detrimental effects. The method, then:
as §1

Turning to `CCCc1nn(C)c2c(=O)[nH]c(-c3cc(S(=O)(=O)N4CCN(C)CC4)ccc3OCC)nc12` [Sildenafil, sildenafil, reference compound], in the data set on male rats (male rats), the ED50 (as a rule, the dose at which the effect has come halfway, by size or by number of responders) is 0.284 mg/kg. For the same molecule, the “responding rats #” value with male rats (dose 0.0781 mg/kg) was determined as 3; with male rats (dose 0.1562 mg/kg), 3; in the data set with male rats (dose 0.3125 mg/kg) it was 5; in the data set on male rats (dose 0.6250 mg/kg), 7. For the same molecule, the responding rats % in the data set with male rats (dose 0.0781 mg/kg) worked out at 30%; with male rats (dose 0.1562 mg/kg) it was 30%; in the data set with male rats (dose 0.3125 mg/kg) it was 50%; in the data set with male rats (dose 0.6250 mg/kg), 70%.

With `CCCc1nn(C)c2c(=O)[nH]c(-c3cc(S(=O)(=O)N4CCN(C)CC4)cc4c3OCC4)nc12` [Compound 7a, 5-[2,3-dihydro-5-(4-methylpiperazin-1-ylsulfonyl)-7-benzofuryl]-1-methyl-3-propyl-6,7-dihydro-1H-pyrazolo[4,3-d]pyrimidin-7-one], the ED50 in the data set with male rats (male rats) was 0.247 mg/kg. For the same molecule, the “responding rats #” value in the data set on male rats (dose 0.0781 mg/kg) turned out to be 3; in the data set on male rats (dose 0.1562 mg/kg) it was 4; in the data set on male rats (dose 0.3125 mg/kg), 4; with male rats (dose 0.6250 mg/kg), 8. The responding rats % with male rats (dose 0.0781 mg/kg) is listed as 30%; in the data set on male rats (dose 0.1562 mg/kg), 40%; with male rats (dose 0.3125 mg/kg), 40%; in the data set with male rats (dose 0.6250 mg/kg), 80%. Moreover, in the data set on male rats (male rats, 0.0781-0.625 mg/kg, comparison with sildenafil (Fig. 1)), the “total number of observed erection episodes” value was “superior to sildenafil, especially at higher doses”. In the data set on male rats (male rats, 0.0781-0.625 mg/kg, comparison with sildenafil (Fig. 2)), the “calculated penile erection indices” value was “superior to sildenafil, especially at higher doses”. For the same molecule, the toxicity and side-effects entry in the data set on rats is “completely nontoxic and free from undesirable side-effects”. Besides, the NOAEL in data set [1] is about 0.35 mg/kg.
